One assay has as its target Cytochrome P450 2D6 (Homo sapiens, UniProt P10635). In words: qHTS Assay for Inhibitors and Substrates of Cytochrome P450 2D6. [Related pubchem assays: 410 ]. The note with it: read-out: Potency. In kind it is ADME.
Assay [1] deals with Peroxisome proliferator-activated receptor gamma/Nuclear receptor coactivator 3 (Homo sapiens, UniProt P37231). In kind it is functional.
Assay [2] concerns the target Peroxisome proliferator-activated receptor gamma/Nuclear receptor coactivator 1 (Homo sapiens, UniProt P37231). In kind it is functional.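 Further: agonist potency as compounds enhance coactivator SRC-1 recruitment to PPARgamma.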
Assay [3] has as its target Peroxisome proliferator-activated receptor gamma/Nuclear receptor coactivator 2 (Homo sapiens, UniProt P37231). In kind it is functional.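 Further: agonist potency for raising coactivator recruitment to the receptor.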
In assay [4] the target is Protein-tyrosine kinase 2-beta (Homo sapiens, UniProt Q14289).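 Further: potency of inhibitors of PYK2 kinase phosphorylation of poly-GT substrate.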
The target in another assay is Melanocortin receptor 4 (Homo sapiens, UniProt P32245). Nature of the assay: inhibitors of MC4R cAMP signaling – cell-based, TR-FRET, biased antagonists, dose response (AID 602298).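 Further: antagonist potency against agonist-stimulated cAMP production.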 In kind it is functional.
Assay [5] is described as follows: NIH-3T3 fibroblast cytotoxicity, dose response, cytotoxicity control, cell-based, fluorescence, Alamar Blue, secondary assay (AID 2327).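 Further: NIH-3T3 mouse fibroblasts cultured with fluconazole at 8 µg/mL.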 Type of assay: functional.
The target in the next assay is Nonstructural protein 1 (Influenza A virus, UniProt Q194T2). Type of assay: functional, Influenza A virus (A/California/07/2009(H1N1)).
Assay [6] can be described thus: cAMP pathway inhibition in counterscreen cell line – TR-FRET cAMP detection, counter-screen for MC4R biased antagonist project, dose response (AID 602305).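 Further: U2OS cells stimulated with forskolin near its EC80 as the cAMP inducer; potency is for inhibition of forskolin-stimulated cAMP signaling.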 Type of assay: functional, cell-based.
Assay [7] in a line: fluconazole-exposed Candida albicans growth modulators – fluorescence, retest, confirmation (AID 2467). Type of assay: functional, cell-based.
The test system of assay [8] is Streptococcus. Nature of the assay: GAS UMAA2166 growth inhibition – luminescence, BacTiterGlo, counter-screen for streptokinase expression inhibitor project, dose response (AID 1915).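 Further: potency for reduction of bacterial viability or growth.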 Type of assay: functional, organism-based.
Another assay has as its target T1, Streptokinase A (Streptococcus pyogenes serotype M1, UniProt P10520).
T1 sequence (P10520 whole entry): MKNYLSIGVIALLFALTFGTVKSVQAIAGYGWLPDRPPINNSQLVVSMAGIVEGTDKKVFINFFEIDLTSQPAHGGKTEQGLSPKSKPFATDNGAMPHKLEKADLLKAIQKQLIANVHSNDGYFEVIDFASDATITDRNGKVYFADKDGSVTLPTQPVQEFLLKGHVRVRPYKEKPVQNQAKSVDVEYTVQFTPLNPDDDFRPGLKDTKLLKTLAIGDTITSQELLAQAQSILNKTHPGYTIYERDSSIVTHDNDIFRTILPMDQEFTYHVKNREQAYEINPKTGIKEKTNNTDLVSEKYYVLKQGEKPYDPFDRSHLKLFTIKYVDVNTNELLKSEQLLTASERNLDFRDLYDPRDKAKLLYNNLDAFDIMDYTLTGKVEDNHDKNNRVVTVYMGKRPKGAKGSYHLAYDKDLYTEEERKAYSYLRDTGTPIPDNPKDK
In words: viability-normalized secreted streptokinase activity reduction – plasminogen activation absorbance, OD405, dose response (AID 1914).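 Further: secreted streptokinase activity via plasminogen activation per viability signal from cell pellet.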 Type of assay: functional, Streptococcus pyogenes M1 GAS.

In assay [9] the test system is Streptococcus. Nature of the assay: Luminescence Microorganism-Based Dose Response Follow up to Identify Compounds Cytotoxic to Streptococcus. [Related pubchem assays: 1677 (Project Summary), 1915, 1914, 1902 (Retest at Dose), 1900 (Counter Screen), 1662 (Primary HTS)]. Type of assay: functional, organism-based.
The target in the next assay is Paired box protein Pax-8 (Homo sapiens, UniProt Q06710). In words: PAX8 transcriptional activity inhibition in RMG-I – RMG-I cells, luciferase, cherry-pick, dose response (AID 687027).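 Further: luciferase reporter driven by Pax8 target thyroperoxidase promoter measured by SteadyGlo luminescence.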 In kind it is functional, cell-based.
The nature of assay [10]: luciferase reporter signal suppression in cells – H4 neuroglioma cells, luminescence, dose response (AID 1990). In kind it is functional, cell-based.
The nature of assay [11]: general cell-killing toxicity readout – plate reader, dry powder samples, cytotoxicity control for PAX8 inhibitor project, dose response (AID 743021). Type of assay: functional, cell-based.
The next assay is described as follows: cells. Type of assay: functional, cell-based.
The subject of assay [12] is Vero. In words: cells. Type of assay: functional. Particulars: Chlorocebus sabaeus.
Assay [13] relates to BJ. In words: BJ-TERT-LT-ST fibroblast viability loss – cell-based, RAS-independent, luminescence, dose response (AID 1935).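 Further: BJ fibroblasts immortalized with TERT plus LT and ST oncogenes.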 In kind it is functional. Particulars: Homo sapiens.
A short description of assay [14]: HEK-293T viability loss after treatment – luminescence, T-cell screen hits, cytotoxicity control for TCR NF-kB inhibitor project, dose response (AID 489026).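 Further: cells exposed to compound about 14 hours before the viability readout.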 In kind it is functional, cell-based.
The nature of assay [15]: DRD fibroblast viability loss – cell-based, non-viral oncogenic, luminescence, dose response (AID 1934). Type of assay: functional. The note with it: Homo sapiens.
A short description of assay [16]: Luminescence-based counterscreen assay for KLF5 inhibitors: dose response cell-based high throughput screening assay to identify cytotoxic compounds using the IEC-6 intestinal epithelial cell line. [Related pubchem assays: 1700 (Primary screen.), 1834 (Confirmation screen.), 1858 (Summary AID.), 1905 (Counterscreen.)]. Type of assay: functional.
Assay [17] concerns BJ. Nature of the assay: growth inhibition of engineered Ras-driven BJ cells – cell-based, alamar blue fluorescence, cherrypicked samples, dose response (AID 2631).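 Further: confirmatory dose-response assay in RAS-dependent BJ fibroblasts engineered with TERT, LT and ST, with cytotoxicity read by fluorescence.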 Type of assay: functional. Particulars: Homo sapiens.
For assay [18], the system named is Vero. Nature of the assay: cells. In kind it is functional, cell-based. Particulars: Chlorocebus sabaeus.
Assay [19] can be described thus: alpha-synuclein stem-loop luciferase translation blockers – H4 neuroglioma cells, luminescence, confirmation (AID 1988). In kind it is functional, cell-based.
Assay [20] deals with BJ. In words: BJ-TERT fibroblast viability loss – cell-based, RAS-independent, luminescence, dose response (AID 1933). In kind it is functional. The note with it: Homo sapiens.
Assay [21] relates to BJ. Nature of the assay: cells. Type of assay: functional, cell-based. Particulars: Homo sapiens.
Assay [22] can be described thus: Luminescence Cell-Based Dose Response HTS to Identify Inhibitors of 5'UTR Stem-Loop Driven Prion Protein mRNA Translation in H4 Neuroglioblastoma Cells. [Related pubchem assays: 1827 (Project Summary), 1813 (Primary HTS)]. Type of assay: functional.
Assay [23] is described as follows: luciferase reporter signal reduction – luminescence, H4-C neuroglioblastoma cells, dose response (AID 2458).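 Further: H4 neuroglioblastoma cells stably carrying a luciferase reporter gene fusion.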 In kind it is functional, cell-based.
The nature of assay [24]: alpha-synuclein stem-loop translation blockers – luminescence, H4 neuroglioblastoma cells, dose confirmation, confirmation (AID 2454).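 Further: H4 neuroglioblastoma cells carrying an alpha-synuclein 5'UTR luciferase reporter; potency for inhibition of the luciferase signal.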 Type of assay: functional, cell-based.
Assay [25] concerns Vero. In words: mammalian cell viability reduction – secondary assay, cytotoxicity control for West Nile virus antiviral project, dose response (AID 1650). In kind it is functional. Particulars: Chlorocebus sabaeus.
Another assay concerns the target T2, Estrogen receptor (Homo sapiens, UniProt P03372).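 Further: potency for inhibiting coactivator peptide recruitment to the receptor.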
T2 sequence (P03372 whole entry): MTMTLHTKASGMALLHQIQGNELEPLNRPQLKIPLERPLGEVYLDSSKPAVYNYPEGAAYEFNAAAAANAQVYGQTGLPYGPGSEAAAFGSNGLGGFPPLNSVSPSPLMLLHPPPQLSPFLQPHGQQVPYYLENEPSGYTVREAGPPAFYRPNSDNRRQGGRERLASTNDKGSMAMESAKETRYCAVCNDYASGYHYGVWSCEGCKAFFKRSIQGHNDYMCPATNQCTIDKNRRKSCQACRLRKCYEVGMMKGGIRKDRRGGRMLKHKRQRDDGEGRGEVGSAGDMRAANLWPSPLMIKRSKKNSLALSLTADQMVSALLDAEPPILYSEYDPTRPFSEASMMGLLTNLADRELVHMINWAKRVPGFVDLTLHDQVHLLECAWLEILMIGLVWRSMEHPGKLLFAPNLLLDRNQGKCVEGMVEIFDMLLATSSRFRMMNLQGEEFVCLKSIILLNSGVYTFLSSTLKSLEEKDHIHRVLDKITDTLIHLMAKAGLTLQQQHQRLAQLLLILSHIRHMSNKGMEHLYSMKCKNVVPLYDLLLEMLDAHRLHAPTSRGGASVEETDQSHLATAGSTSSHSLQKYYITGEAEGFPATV

Assay [26] addresses T3, Polyadenylate-binding protein 1 (Homo sapiens, UniProt P11940). In words: MLLE binding blockers, Cy5 peptide tracer – biochemical, fluorescence polarization, Cy5-PAM2 peptide, secondary, miRNA deadenylation inhibitor project, dose response (AID 602260). In kind it is functional. The note with it: read-out: IC50_Mean.
A further assay concerns the target NS3 (Hepatitis C virus, UniProt A3EZJ3). In words: PubChem AID 2173. Set-up: species or system Hepacivirus hominis.
Assay [27] concerns the target T4, RNA-binding protein pos-1 (Caenorhabditis elegans, UniProt G5EF15).
T4 sequence (G5EF15 whole entry): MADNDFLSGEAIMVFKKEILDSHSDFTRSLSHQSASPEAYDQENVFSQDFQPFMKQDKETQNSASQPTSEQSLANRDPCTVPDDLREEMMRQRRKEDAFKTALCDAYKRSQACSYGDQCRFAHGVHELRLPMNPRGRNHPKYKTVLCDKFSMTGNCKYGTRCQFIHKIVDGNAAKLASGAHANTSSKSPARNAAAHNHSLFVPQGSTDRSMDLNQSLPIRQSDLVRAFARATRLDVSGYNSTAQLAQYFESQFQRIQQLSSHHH
In words: disruptors of C. elegans POS-1 RNA interaction – biochemical, fluorescence polarization, dose response (AID 1964).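 Further: purified POS-1 fused to maltose binding protein made in E. coli; potency of compounds blocking POS-1 binding to fluorescent RNA.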

Assay [28] has as its target T3, Polyadenylate-binding protein 1. In words: MLLE domain peptide-binding blockers, IC50 – biochemical, fluorescence polarization, FITC-PAM2 peptide, dose response (AID 602259). Type of assay: functional. Particulars: read-out: IC50_Mean.
Assay [29] has as its target T5, Zinc finger protein mex-5 (Caenorhabditis elegans, UniProt Q9XUB2).
T5 sequence (Q9XUB2 whole entry): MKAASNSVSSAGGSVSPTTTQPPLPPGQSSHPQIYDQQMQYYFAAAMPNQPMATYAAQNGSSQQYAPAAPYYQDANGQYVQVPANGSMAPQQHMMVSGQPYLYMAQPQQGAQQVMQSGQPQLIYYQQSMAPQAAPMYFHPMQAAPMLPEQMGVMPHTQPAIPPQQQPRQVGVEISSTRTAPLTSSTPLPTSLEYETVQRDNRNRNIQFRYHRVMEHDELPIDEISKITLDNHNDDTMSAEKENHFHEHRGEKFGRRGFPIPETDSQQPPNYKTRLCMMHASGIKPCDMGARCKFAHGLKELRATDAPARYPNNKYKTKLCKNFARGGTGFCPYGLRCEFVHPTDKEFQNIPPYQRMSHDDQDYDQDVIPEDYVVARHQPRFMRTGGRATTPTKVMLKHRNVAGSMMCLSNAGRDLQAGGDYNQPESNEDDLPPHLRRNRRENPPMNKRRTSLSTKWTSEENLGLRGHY
In words: potency of MEX-5 RNA-binding blockers – biochemical, C. elegans, fluorescence polarization, dose response (AID 1960).

Active and inactive are the calls of the source. A value given as a limit tells only on which side of the number the result lay.

Peroxisome proliferator-activated receptor gamma/Nuclear receptor coactivator 3, sequence (P37231 whole entry): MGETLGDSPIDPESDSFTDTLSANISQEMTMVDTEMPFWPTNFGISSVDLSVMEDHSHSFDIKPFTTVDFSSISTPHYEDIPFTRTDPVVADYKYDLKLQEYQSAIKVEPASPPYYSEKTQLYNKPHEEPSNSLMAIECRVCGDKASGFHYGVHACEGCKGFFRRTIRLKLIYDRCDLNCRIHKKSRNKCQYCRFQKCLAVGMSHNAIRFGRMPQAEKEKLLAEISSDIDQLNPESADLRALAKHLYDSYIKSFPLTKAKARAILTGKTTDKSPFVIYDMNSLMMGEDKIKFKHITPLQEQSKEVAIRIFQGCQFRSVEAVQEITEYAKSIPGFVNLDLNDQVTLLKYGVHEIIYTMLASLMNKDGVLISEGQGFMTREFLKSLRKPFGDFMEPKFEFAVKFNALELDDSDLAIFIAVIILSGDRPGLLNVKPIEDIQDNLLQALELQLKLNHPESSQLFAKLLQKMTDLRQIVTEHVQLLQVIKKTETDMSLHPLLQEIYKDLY
Peroxisome proliferator-activated receptor gamma/Nuclear receptor coactivator 3, sequence (Q9Y6Q9 whole entry, further chain): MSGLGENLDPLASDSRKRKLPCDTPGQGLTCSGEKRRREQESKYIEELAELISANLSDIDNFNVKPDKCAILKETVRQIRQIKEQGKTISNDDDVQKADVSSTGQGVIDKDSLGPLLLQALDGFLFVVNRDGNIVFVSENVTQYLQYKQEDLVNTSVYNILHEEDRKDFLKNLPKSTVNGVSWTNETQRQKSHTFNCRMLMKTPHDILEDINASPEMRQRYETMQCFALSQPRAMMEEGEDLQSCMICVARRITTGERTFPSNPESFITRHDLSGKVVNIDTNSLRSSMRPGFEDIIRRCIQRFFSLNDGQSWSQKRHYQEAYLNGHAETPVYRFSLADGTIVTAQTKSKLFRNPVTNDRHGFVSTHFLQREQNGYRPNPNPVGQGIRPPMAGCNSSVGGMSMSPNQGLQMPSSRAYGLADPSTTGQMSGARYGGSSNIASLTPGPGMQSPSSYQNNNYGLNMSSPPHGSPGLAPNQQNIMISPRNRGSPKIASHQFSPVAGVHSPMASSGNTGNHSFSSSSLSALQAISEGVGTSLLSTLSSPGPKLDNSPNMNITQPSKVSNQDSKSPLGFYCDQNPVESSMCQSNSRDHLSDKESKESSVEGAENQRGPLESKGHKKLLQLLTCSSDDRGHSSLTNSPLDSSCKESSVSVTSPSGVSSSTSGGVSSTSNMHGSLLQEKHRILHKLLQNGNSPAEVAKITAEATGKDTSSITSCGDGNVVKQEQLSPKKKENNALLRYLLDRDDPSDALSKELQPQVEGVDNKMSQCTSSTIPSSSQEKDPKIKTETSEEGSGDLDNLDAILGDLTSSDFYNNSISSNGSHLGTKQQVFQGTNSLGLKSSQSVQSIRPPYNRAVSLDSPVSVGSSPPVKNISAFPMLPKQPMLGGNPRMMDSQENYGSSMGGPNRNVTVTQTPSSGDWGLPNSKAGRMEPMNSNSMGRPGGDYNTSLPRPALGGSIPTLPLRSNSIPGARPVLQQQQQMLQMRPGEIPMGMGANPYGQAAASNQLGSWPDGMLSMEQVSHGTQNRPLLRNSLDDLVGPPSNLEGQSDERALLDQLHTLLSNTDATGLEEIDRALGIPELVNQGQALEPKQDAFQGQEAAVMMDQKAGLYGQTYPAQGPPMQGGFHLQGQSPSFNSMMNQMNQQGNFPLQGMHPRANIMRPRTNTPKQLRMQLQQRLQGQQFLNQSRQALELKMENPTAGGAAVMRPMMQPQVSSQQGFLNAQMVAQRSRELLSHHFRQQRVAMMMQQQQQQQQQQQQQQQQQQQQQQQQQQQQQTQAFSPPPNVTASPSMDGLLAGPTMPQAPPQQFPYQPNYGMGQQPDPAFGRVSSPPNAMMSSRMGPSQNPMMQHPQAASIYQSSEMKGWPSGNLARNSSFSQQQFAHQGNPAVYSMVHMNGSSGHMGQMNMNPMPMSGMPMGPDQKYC
Peroxisome proliferator-activated receptor gamma/Nuclear receptor coactivator 2, sequence (P37231 whole entry): as the sequence (P37231 whole entry) above
Peroxisome proliferator-activated receptor gamma/Nuclear receptor coactivator 2, sequence (Q15596 whole entry, further chain): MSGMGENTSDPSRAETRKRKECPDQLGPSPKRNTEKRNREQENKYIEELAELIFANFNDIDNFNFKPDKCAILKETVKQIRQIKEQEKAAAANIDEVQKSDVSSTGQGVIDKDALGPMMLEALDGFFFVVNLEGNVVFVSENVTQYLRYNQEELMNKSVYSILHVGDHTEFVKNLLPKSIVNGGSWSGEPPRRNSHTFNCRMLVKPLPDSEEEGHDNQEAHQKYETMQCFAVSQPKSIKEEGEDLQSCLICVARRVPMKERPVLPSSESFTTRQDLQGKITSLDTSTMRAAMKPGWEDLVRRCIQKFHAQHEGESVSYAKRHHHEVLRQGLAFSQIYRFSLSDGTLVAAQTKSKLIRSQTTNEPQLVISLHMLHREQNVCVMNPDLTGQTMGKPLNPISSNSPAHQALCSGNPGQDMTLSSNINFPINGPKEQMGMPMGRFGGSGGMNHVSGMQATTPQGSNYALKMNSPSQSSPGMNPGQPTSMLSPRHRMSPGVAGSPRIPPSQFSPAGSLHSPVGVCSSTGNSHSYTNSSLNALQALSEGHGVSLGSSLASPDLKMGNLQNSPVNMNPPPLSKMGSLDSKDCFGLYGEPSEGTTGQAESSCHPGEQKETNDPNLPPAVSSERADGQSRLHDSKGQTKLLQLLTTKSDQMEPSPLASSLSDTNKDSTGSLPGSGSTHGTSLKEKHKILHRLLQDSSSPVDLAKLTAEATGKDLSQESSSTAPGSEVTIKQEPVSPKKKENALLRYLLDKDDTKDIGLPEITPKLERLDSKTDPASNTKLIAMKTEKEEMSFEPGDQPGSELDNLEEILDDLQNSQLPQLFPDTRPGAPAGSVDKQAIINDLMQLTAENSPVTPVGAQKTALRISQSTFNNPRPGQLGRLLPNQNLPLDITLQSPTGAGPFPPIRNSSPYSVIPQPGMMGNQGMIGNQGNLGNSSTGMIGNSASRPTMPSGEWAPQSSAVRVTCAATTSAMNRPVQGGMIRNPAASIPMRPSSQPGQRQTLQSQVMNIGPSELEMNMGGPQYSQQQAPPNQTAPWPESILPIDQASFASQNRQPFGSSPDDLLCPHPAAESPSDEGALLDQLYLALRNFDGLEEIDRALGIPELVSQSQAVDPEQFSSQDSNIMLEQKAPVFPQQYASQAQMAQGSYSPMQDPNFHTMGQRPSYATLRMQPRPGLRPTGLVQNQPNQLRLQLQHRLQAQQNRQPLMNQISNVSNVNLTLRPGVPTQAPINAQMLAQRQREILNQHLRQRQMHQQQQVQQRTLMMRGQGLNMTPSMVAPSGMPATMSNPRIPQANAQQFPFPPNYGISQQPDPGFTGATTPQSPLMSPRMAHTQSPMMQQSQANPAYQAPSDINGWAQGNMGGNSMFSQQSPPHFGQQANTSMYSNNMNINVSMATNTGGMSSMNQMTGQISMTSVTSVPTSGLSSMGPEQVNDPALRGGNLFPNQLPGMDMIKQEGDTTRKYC
T3 sequence (P11940 whole entry): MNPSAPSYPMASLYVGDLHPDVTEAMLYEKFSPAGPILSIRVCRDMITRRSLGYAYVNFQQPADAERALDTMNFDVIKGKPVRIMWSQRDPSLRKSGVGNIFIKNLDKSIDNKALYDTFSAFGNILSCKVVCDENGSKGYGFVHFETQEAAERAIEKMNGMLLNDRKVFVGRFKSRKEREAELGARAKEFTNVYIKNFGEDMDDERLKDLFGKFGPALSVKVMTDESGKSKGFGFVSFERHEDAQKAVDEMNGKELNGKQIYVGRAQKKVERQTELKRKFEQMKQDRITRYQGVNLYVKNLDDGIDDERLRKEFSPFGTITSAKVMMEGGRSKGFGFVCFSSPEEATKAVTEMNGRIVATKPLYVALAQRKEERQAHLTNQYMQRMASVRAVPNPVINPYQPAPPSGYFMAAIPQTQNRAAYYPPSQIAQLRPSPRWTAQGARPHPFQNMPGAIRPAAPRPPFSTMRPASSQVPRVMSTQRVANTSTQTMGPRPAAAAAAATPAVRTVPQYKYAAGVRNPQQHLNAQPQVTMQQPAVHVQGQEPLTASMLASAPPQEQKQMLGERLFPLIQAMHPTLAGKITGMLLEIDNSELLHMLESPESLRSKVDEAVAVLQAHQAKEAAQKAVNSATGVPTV
Cytochrome P450 2D6, sequence (P10635 whole entry): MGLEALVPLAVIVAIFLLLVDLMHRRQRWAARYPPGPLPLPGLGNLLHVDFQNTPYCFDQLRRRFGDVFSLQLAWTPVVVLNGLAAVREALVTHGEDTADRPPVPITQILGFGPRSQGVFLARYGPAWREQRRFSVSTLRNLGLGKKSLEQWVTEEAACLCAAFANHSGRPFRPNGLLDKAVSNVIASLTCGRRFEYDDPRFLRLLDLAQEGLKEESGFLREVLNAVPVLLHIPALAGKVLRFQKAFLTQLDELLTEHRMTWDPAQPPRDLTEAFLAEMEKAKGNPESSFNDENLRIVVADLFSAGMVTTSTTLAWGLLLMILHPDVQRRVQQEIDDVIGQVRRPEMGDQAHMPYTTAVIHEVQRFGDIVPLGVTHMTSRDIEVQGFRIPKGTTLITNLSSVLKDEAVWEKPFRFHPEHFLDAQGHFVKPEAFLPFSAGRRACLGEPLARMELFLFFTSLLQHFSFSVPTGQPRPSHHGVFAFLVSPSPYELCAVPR

Consider `CC(C)[C@@]1(NC(=O)[C@@H]2C[C@H]3c4cccc5[nH]cc(c45)C[C@@H]3N(C)C2)O[C@@]2(O)[C@H]3CCCN3C(=O)[C@@H](Cc3ccccc3)N2C1=O`, for which the AC50 at Cytochrome P450 2D6 is 31.6 µM (inconclusive).

With `S=C(NCc1ccc(Cl)cc1Cl)Nc1ccccc1`, the EC50 in [1] is 67.3 µM (not active); in [2], > 79.4 µM (not active); in assay [3], > 79.4 µM (not active).

Consider `O=C(CCN1C(=O)c2ccccc2C1=O)Nc1ccc(-c2nc3ccccc3o2)cc1`, for which the EC50 in assay [1] was > 79.4 µM (not active); in assay [2] it was 74.4 µM (not active); in assay [3], 71.6 µM (not active).

Regarding `CCOC(=O)c1cnc2ccc(C)cc2c1Nc1ccc(N2CCOCC2)cc1`, the IC50 in [4] is 47.7 µM (not active); at Melanocortin receptor 4, 19 µM (inactive); at Nonstructural protein 1, 30.7 µM (active); in assay [6] it was > 64.6 µM (inactive). Moreover, the values for the EC50 in assay [5] and in assay [7] were 41.5 µM (active) and 1.75 µM (active), respectively.

As to `Cc1cc(C)c(NC(=O)c2oc3ccccc3c2COc2ccccc2)c(C)c1`, the EC50 was > 150 µM (not active) with Streptococcus [8], 6.21 µM (active) on Streptokinase A and 122 µM (active) with Streptococcus [9].

In the case of `CCCC/N=C/[C@]12CCC(O)CC1(O)CCC1[C@@H]2CC[C@]2(C)[C@H](C3C=CC(=O)O3)CCC12O` (stereo not given in full), the AC50 is 2.19 µM (active) at Paired box protein Pax-8 and 55.4 µM (active) in assay [11]. Further, the EC50 was < 0.1 µM (active) in assay [10]; 0.263 µM (active) in the assay “cells”; 3.01 µM (inconclusive) in the assay on BJ [13]; 0.372 µM (active) in assay [15]; 0.45 µM (active) with BJ [17]; < 0.1 µM (active) in assay [19]. Also, the EC50 with BJ [20] was 0.321 µM (active); with BJ [21] it was 0.538 µM (active); in assay [22], < 0.1 µM (active); in assay [23] it was 0.238 µM (active); in assay [24], 0.203 µM (active). Also, the CC50 in the assay with Vero [12] is 1.27 µM (active); with Vero [25] it was 0.96 µM (active). The IC50 in assay [14] was > 80 µM (inactive); in assay [16] it was > 39.8 µM (not active); with Vero [18] it was < 0.05 µM (active).

With `CCOc1ccc(/C=c2\sc3nc(-c4ccco4)nn3c2=O)cc1OCC`, the IC50 on Estrogen receptor was > 50 µM (not active); in assay [26], > 66 µM (inactive); against NS3 it was 24.7 µM (not active); in assay [28], 48.8 µM (inactive). Moreover, the EC50 in assay [27] and in [29] was > 300 µM (not active) throughout.

(Values after ChEMBL document CHEMBL1201862, “PubChem BioAssay data set” (2004).)
